In patent US11214564B2, “Compounds with thymine skeleton for use in medicine” (TECHNISCHE UNIVERSITÄT DRESDEN, priority 2019, dated 2022):

Target: HSP27 (Homo sapiens, UniProt P04792)
Assay: Aggregation assay: HSP27 chaperone activity on heat-induced aggregation of citrate synthase
Assay type: biochemical
Conditions: compound 10 μM; 1.44 μM CS, 481 nM HSP27, 43° C., 500 nm
Experimental: To test how small molecules affect the chaperone activity of HSP27, misfolding and aggregation of citrate synthase (CS), a well-known in vitro client protein of HSP27, was measured. Citrate synthase misfolds and aggregates when exposed to heat shock at 43° C. This heat denaturation is prevented or delayed in the presence of HSP27 (CS+HSP27) (Jakob et al. (1993)). […] The samples were incubated at 43° C. and the aggregation behavior of CS was monitored in a spectrometer (PerkinElmer LS55) at a wavelength of 500 nm. Substances inhibiting HSP27's chaperone activity lead to continued denaturation of the client protein and its aggregation in solution. This inhibition correlates with the strength of the interaction between HSP27 and the test substance, which is related to its binding efficiency.
In the reference experiment BVDU (CS+HSP27+BVDU) was tested at a concentration of 750 μM as previously described (Heinrich et al. (2016)).
The compounds according to the invention were tested at a concentration of 10 μM.

Chain of HSP27 (P04792 whole entry): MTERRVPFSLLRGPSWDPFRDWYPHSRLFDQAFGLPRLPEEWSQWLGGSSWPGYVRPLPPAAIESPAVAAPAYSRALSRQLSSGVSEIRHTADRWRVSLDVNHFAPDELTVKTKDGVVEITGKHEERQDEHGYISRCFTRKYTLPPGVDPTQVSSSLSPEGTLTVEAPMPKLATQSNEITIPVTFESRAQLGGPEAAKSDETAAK

| SMILES | aggregation value related to the value from reference experiment (CS + HSP27 + BVDU), which was set at 1.0 |
| --- | --- |
| Cc1cn(-c2ccc(NC(=O)Cc3cccc(-c4ccc(Cl)cc4Cl)c3)cc2)c(=O)[nH]c1=O [Compound 7, 2-(2′,4′-dichloro-[1,1′-biphenyl]-3-yl)-N-(4-(5-methyl-2,4-dioxo-3,4-dihydro-pyrimidin-1(2H)-yl)phenyl) acetamide] | 1.35 |
| Cc1cn(-c2ccc(NC(=O)Cc3cccc(-c4ccc(Cl)c(Cl)c4)c3)cc2)c(=O)[nH]c1=O [Compound 3, 2-(3′,4′-dichloro-[1,1′-biphenyl]-3-yl)-N-(4-(5-methyl-2,4-dioxo-3,4-dihydro-pyrimidin-1(2H)-yl)phenyl) acetamide] | 1.44 |
| O=C(Cc1cccc(-c2cccc(OC(F)(F)F)c2)c1)Nc1ccc(-n2cc(Cl)c(=O)[nH]c2=O)cc1 [Compound 17, N-(4-(5-chloro-2,4-dioxo-3,4-dihydro-pyrimidin-1(2H)-yl)phenyl)-2-(3′-(trifluoro-methoxy)-[1,1′-biphenyl]-3-yl) acetamide] | 1.01 |
| COc1ccc(-c2cccc(CC(=O)Nc3ccc(-n4ccc(=O)[nH]c4=O)cc3C)c2)cc1Cl [Compound 14, 2-(3′-chloro-4′-methoxy-[1,1′-biphenyl]-3-yl)-N-(4-(2,4-dioxo-3,4-dihydro-pyrimidin-1(2H)-yl)-2-methyl-phenyl)acetamide] | 1.2 |
| Cc1cn(-c2ccc(NC(=O)Cc3cccc(-c4cccc(Cl)c4)c3)cc2)c(=O)[nH]c1=O [Compound 2, 2-(3′-chloro-[1,1′-biphenyl]-3-yl)-N-(4-(5-methyl-2,4-dioxo-3,4-dihydro-pyrimidin-1(2H)-yl)phenyl) acetamide] | 1.55 |
| Cc1cn(-c2ccc(NC(=O)Cc3cccc(-c4ccc(OC(C)C)c(Cl)c4)c3)cc2)c(=O)[nH]c1=O [Compound 23, 2-(3′-chloro-4′-isopropoxy-[1,1′-biphenyl]-3-yl)-N-(4-(5-methyl-2,4-dioxo-3,4-dihydropyrimidin-1(2H)-yl)phenyl) acetamide] | 1.33 |
| Cc1cn(-c2ccc(NC(=O)Cc3cccc(-c4ccc(Cl)cc4)c3)cc2)c(=O)[nH]c1=O [Compound 15, 2-(4′-chloro-[1,1′-biphenyl]-3-yl)-N-(4-(5-methyl-2,4-dioxo-3,4-dihydropyrimidin-1(2H)-yl)phenyl) acetamide] | 1.11 |
| COc1ccc(-c2cccc(CC(=O)Nc3ccc(-n4cc(C)c(=O)[nH]c4=O)cc3)c2)cc1 [Compound 31, 2-(4′-methoxy-[1,1′-biphenyl]-3-yl)-N-(4-(5-methyl-2,4-dioxo-3,4-dihydro-pyrimidin-1(2H)-yl)phenyl) acetamide] | 0.78 |
| O=C(Cc1cccc(-c2cccc(Cl)c2)c1)Nc1ccc(-n2ccc(=O)[nH]c2=O)cc1 [Compound 26, 2-(3′-chloro-[1,1′-biphenyl]-3-yl)-N-(4-(2,4-dioxo-3,4-dihydro-pyrimidin-1(2H)-yl)phenyl) acetamide] | 0.85 |
| Cc1ccc(-c2cccc(CC(=O)Nc3ccc(-n4ccc(=O)[nH]c4=O)cc3C)c2)cc1Cl [Compound 10, 2-(3′-chloro-4′-methyl-[1,1′-biphenyl]-3-yl)-N-(4-(2,4-dioxo-3,4-dihydro-pyrimidin-1(2H)-yl)-2-methyl-phenyl)acetamide] | 1.3 |
| COc1ccc(-c2cccc(CC(=O)Nc3ccc(-n4ccc(=O)[nH]c4=O)cc3F)c2)cc1Cl [Compound 25, 2-(3′-chloro-4′-methoxy-[1,1′-biphenyl]-3-yl)-N-(4-(2,4-dioxo-3,4-dihydro-pyrimidin-1(2H)-yl)-2-fluoro-phenyl)acetamide] | 0.88 |
| COc1ccc(-c2cccc(CC(=O)Nc3ccc(-n4ccc(=O)[nH]c4=O)cc3)c2)cc1Cl [Compound 27, 2-(3′-chloro-4′-methoxy-[1,1′-biphenyl]-3-yl)-N-(4-(2,4-dioxo-3,4-dihydro-pyrimidin-1(2H)-yl)phenyl) acetamide] | 0.83 |
| Cc1cn(-c2ccc(NC(=O)Cc3cccc(-c4cccc(C(F)(F)F)c4)c3)cc2)c(=O)[nH]c1=O [Compound 9, N-(4-(5-methyl-2,4-dioxo-3,4-dihydro-pyrimidin-1(2H)-yl)phenyl)-2-(3′-(trifluoromethyl)-[1,1′-biphenyl]-3-yl)acetamide] | 1.3 |
| O=C(Cc1cccc(-c2ccc(Cl)cc2Cl)c1)Nc1ccc(-n2cc(F)c(=O)[nH]c2=O)cc1 [Compound 20, 2-(2′,4′-dichloro-[1,1′-biphenyl]-3-yl)-N-(4-(5-fluoro-2,4-dioxo-3,4-dihydro-pyrimidin-1(2H)-yl)phenyl) acetamide] | 0.96 |
| Cc1ccc(-c2cccc(CC(=O)Nc3ccc(-n4cc(C)c(=O)[nH]c4=O)cc3)c2)cc1Cl [Compound 6, 2-(3′-chloro-4′-methyl-[1,1′-biphenyl]-3-yl)-N-(4-(5-methyl-2,4-dioxo-3,4-dihydropyrimidin-1(2H)-yl)phenyl) acetamide] | 1.38 |

Next, values leading:

| aggregation value related to the value from reference experiment (CS + HSP27 + BVDU), which was set at 1.0 | SMILES |
| --- | --- |
| 1.8 | O=C(Nc1ccc(Cn2ccc(=O)[nH]c2=O)cc1)c1cccc(-c2ccc(Cl)c(Cl)c2)c1 [Compound 34, 3′,4′-dichloro-N-(4-((2,4-dioxo-3,4-dihydro-pyrimidin-1(2H)-yl)methyl)phenyl)-[1,1′-biphenyl]-3-carboxamide] |
| 1.24 | COc1ccc(-c2cccc(CC(=O)Nc3cccc(-n4ccc(=O)[nH]c4=O)c3)c2)cc1Cl [Compound 41, 2-(3′-chloro-4′-methoxy-[1,1′-biphenyl]-3-yl)-N-(3-(2,4-dioxo-3,4-dihydro-pyrimidin-1(2H)-yl)phenyl) acetamide] |
| 0.83 | COc1ccc(-c2cccc(C(=O)Nc3ccc(-n4ccc(=O)[nH]c4=O)cc3)c2)cc1Cl [Compound 44, 3′-chloro-N-(4-(2,4-dioxo-3,4-dihydro-pyrimidin-1(2H)-yl)phenyl)-4′-methoxy-[1,1′-biphenyl]-3-carboxamide] |
| 1.21 | O=C(Cc1cccc(-c2cccc(OC(F)(F)F)c2)c1)Nc1cccc(-n2ccc(=O)[nH]c2=O)c1 [Compound 39, N-(3-(2,4-dioxo-3,4-dihydro-pyrimidin-1(2H)-yl)phenyl)-2-(3′-(trifluoro-methoxy)-[1,1′-biphenyl]-3-yl) acetamide] |
| 1.05 | O=C(Cc1ccc(Cl)c(Cl)c1)NCc1cn(-c2ccc(-n3ccc(=O)[nH]c3=O)cc2)nn1 [Compound 55, 2-(3,4-Dichlorophenyl)-N-((1-(4-(2,4-dioxo-3,4-dihydropyrimidin-1(2H)-yl)phenyl)-1H-1,2,3-triazol-4-yl)methyl)acetamide] |
| 0.7 | O=C(Nc1ccc(-n2cc(Cl)c(=O)[nH]c2=O)cc1)c1cccc(-c2cccc(OC(F)(F)F)c2)c1 [Compound 48, N-(4-(5-chloro-2,4-dioxo-3,4-dihydro-pyrimidin-1(2H)-yl)phenyl)-3′-(trifluoro-methoxy)-[1,1′-biphenyl]-3-carboxamide] |
| 0.76 | O=C(Cc1cccc(-c2ccc(Cl)c(Cl)c2)c1)Nc1ccc(-n2ccc(=O)[nH]c2=O)cc1F [Compound 32, 2-(3′,4′-dichloro-[1,1′-biphenyl]-3-yl)-N-(4-(2,4-dioxo-3,4-dihydro-pyrimidin-1(2H)-yl)-2-fluoro-phenyl)acetamide] |
| 0.66 | Cc1cccc(-c2cccc(C(=O)Nc3ccc(-n4ccc(=O)[nH]c4=O)cc3)c2)c1 [Compound 42, N-(4-(2,4-dioxo-3,4-dihydro-pyrimidin-1(2H)-yl)phenyl)-3′-methyl-[1,1′-biphenyl]-3-carboxamide] |
| 1.46 | Cc1cn(-c2ccc(NC(=O)c3cccc(-c4cccc(OC(F)(F)F)c4)c3)cc2)c(=O)[nH]c1=O [Compound 47, N-(4-(5-methyl-2,4-dioxo-3,4-dihydro-pyrimidin-1(2H)-yl)phenyl)-3′-(trifluoro-methoxy)-[1,1′-biphenyl]-3-carboxamide] |
| 0.73 | O=C(Cc1cccc(-c2ccc(Cl)c(Cl)c2)c1)Nc1ccc(-n2cc(Cl)c(=O)[nH]c2=O)cc1 [Compound 51, N-(4-(5-chloro-2,4-dioxo-3,4-dihydro-pyrimidin-1(2H)-yl)phenyl)-2-(3′,4′-dichloro-[1,1′-biphenyl]-3-yl)acetamide] |
